Values quoted from earlier work in US9333175B2, “Controlled release levetiracetam formulations and methods for producing the same” (Mylan Inc., priority 2010, dated 2016).

Conditions: A. J. Gower et al., Eur. J. Pharmacol., 222, 1992, 193-203

| Structure (SMILES) | activity in the treatment of epilepsy |
| --- | --- |
| CC[C@H](C(N)=O)N1CCCC1=O [(R)-(+)-alpha-ethyl-2-oxo-1-pyrrolidine acetamide] | completely lacks activity |
| CC[C@@H](C(N)=O)N1CCCC1=O [Levetiracetam, (S)-(−)-alpha-ethyl-2-oxo-1-pyrrolidine acetamide] | effective in the treatment of epilepsy |
